Results as given in patent US10750743B2, “Pyridazinone herbicides” (E.I. DU PONT DE NEMOURS AND COMPANY, priority 2015, dated 2020).

Columns and labels:
Assay type in all cases: in vivo
[1] = tested on: barnyardgrass (Echinochloa crus-galli); assay: Test A preemergence, directed soil spray, visual injury rating; conditions: 0 is no effect, 100 is complete control
How it was run: (§1)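 Injury ratings, 0 (no effect) to 100 (complete control), were scored visually versus untreated plants roughly 10 d after treatment under greenhouse conditions. Treatments used surfactant-containing solvent formulations, sprayed onto soil preemergence or onto one- to two-leaf seedlings (2-10 cm) postemergence, grown in a loam-sand mix.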

[2] = tested on: pigweed (Amaranthus retroflexus); assay: as above; conditions: 0 is no effect, 100 is complete control
How it was run: as §1

kochia (Kochia scoparia) [3] = assay: as above; conditions: 0 is no effect, 100 is complete control
How it was run: as §1

[4] = tested on: foxtail, giant (giant foxtail, Setaria faberii); assay: as above; conditions: 0 is no effect, 100 is complete control
How it was run: as §1

[5] = tested on: ragweed (common ragweed, Ambrosia elatior); assay: as above; conditions: 0 is no effect, 100 is complete control
How it was run: as §1

[6] = tested on: ryegrass, It. (Italian ryegrass, Lolium multiflorum); assay: as above; conditions: 0 is no effect, 100 is complete control
How it was run: as §1

[7] = tested on: blackgrass (Alopecurus myosuroides); assay: Test A postemergence application, visual injury rating; conditions: 0 to 100 scale, 0 no effect, 100 complete control
How it was run: as §1

[8] = tested on: barnyardgrass (Echinochloa crus-galli); assay: as above; conditions: 0 to 100 scale, 0 no effect, 100 complete control
How it was run: as §1

[9] = tested on: pigweed (Amaranthus retroflexus); assay: as above; conditions: 0 to 100 scale, 0 no effect, 100 complete control
How it was run: as §1

kochia (Kochia scoparia) [10] = assay: as above; conditions: 0 to 100 scale, 0 no effect, 100 complete control
How it was run: as §1

[11] = tested on: wheat (Triticum aestivum); assay: as above; conditions: 0 to 100 scale, 0 no effect, 100 complete control
How it was run: as §1

[12] = tested on: galium (catchweed bedstraw, Galium aparine); assay: as above; conditions: 0 to 100 scale, 0 no effect, 100 complete control
How it was run: as §1

[13] = tested on: foxtail, giant (giant foxtail, Setaria faberii); assay: as above; conditions: 0 to 100 scale, 0 no effect, 100 complete control
How it was run: as §1

[14] = tested on: ragweed (common ragweed, Ambrosia elatior); assay: as above; conditions: 0 to 100 scale, 0 no effect, 100 complete control
How it was run: as §1

[15] = tested on: ryegrass, It. (Italian ryegrass, Lolium multiflorum); assay: as above; conditions: 0 to 100 scale, 0 no effect, 100 complete control
How it was run: as §1

corn (Zea mays) = assay: as above; conditions: 0 to 100 scale, 0 no effect, 100 complete control
How it was run: as §1

[16] = tested on: sedge, umbrella (small-flower umbrella sedge, Cyperus difformis); assay: Test B flooded paddy test, visual rating; conditions: Flood, 250 g ai/ha, applied to paddy water, rated after 13 to 15 d
How it was run: (§2)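 Ratings use a 0-100 visual scale, where 100 is complete control, and compare treated plants with controls after 13 to 15 d of greenhouse growth. Compound went straight into paddy water kept 3 cm over the soil surface, applied to seedlings at the 2-leaf stage.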

[17] = tested on: barnyardgrass (Echinochloa crus-galli); assay: Test B flooded paddy test, visual rating; conditions: Flood, 250 g ai/ha, applied to paddy water, rated after 13 to 15 d
How it was run: as §2

[18] = tested on: ducksalad (Heteranthera limosa); assay: Test B flooded paddy test, visual rating; conditions: Flood, 250 g ai/ha, applied to paddy water, rated after 13 to 15 d
How it was run: as §2

rice (Oryza sativa) = assay: Test B flooded paddy test, visual rating; conditions: Flood, 250 g ai/ha, applied to paddy water, rated after 13 to 15 d
How it was run: as §2

| SMILES | Plant response rating (0 to 100 scale), Barnyardgrass ([1]; 125 g ai/ha) | Plant response rating (0 to 100 scale), Pigweed ([2]; 125 g ai/ha) | Plant response rating (0 to 100 scale), Kochia (kochia (Kochia scoparia) [3]; 125 g ai/ha) | Plant response rating (0 to 100 scale), Foxtail, Giant ([4]; 125 g ai/ha) | Plant response rating (0 to 100 scale), Ragweed ([5]; 125 g ai/ha) | Plant response rating (0 to 100 scale), Ryegrass, It. ([6]; 125 g ai/ha) | Blackgrass plant response rating ([7]; 125 g ai/ha) | Barnyardgrass plant response rating ([8]; 125 g ai/ha) | Pigweed plant response rating ([9]; 125 g ai/ha) | Kochia plant response rating (kochia (Kochia scoparia) [10]; 125 g ai/ha) | Wheat plant response rating ([11]; 125 g ai/ha) | Galium plant response rating ([12]; 125 g ai/ha) | Foxtail, Giant plant response rating ([13]; 125 g ai/ha) | Ragweed plant response rating ([14]; 125 g ai/ha) | Ryegrass, It. plant response rating ([15]; 125 g ai/ha) | Corn plant response rating (corn (Zea mays); 125 g ai/ha) | Sedge, Umbrella plant response rating (0 to 100 scale, 0 is no effect, 100 is complete control) [16] | Barnyardgrass plant response rating (0 to 100 scale, 0 is no effect, 100 is complete control) [17] | Ducksalad plant response rating (0 to 100 scale, 0 is no effect, 100 is complete control) [18] | Rice plant response rating (0 to 100 scale, 0 is no effect, 100 is complete control) (rice (Oryza sativa)) | other results |
| --- | --- | --- | --- | --- | --- | --- | --- | --- | --- | --- | --- | --- | --- | --- | --- | --- | --- | --- | --- | --- | --- |
| Cc1nn(C)c(=O)c(-c2cccc3sccc23)c1O [Compound 32] | 20 | 40 | 30 | 10 | 0 | 70 | 0 | 0 | 30 | 20 | 0 | 40 | 0 | 0 | 70 | 0 | 50 | 0 | 40 | 0 | Plant response rating (0 to 100 scale), Barnyardgrass ([1]; 500 g ai/ha): 40; Plant response rating (0 to 100 scale), Pigweed ([2]; 500 g ai/ha): 100; Plant response rating (0 to 100 scale), Kochia (kochia (Kochia scoparia) [3]; 500 g ai/ha): 40; Plant response rating (0 to 100 scale), Foxtail, Giant ([4]; 500 g ai/ha): 50; Plant response rating (0 to 100 scale), Ragweed ([5]; 500 g ai/ha): 80; Plant response rating (0 to 100 scale), Ryegrass, It. ([6]; 500 g ai/ha): 100; Blackgrass plant response rating ([7]; 500 g ai/ha): 30; Barnyardgrass plant response rating ([8]; 500 g ai/ha): 50; Pigweed plant response rating ([9]; 500 g ai/ha): 30; Kochia plant response rating (kochia (Kochia scoparia) [10]; 500 g ai/ha): 70; Wheat plant response rating ([11]; 500 g ai/ha): 20; Galium plant response rating ([12]; 500 g ai/ha): 80; Foxtail, Giant plant response rating ([13]; 500 g ai/ha): 40; Ragweed plant response rating ([14]; 500 g ai/ha): 40; Ryegrass, It. plant response rating ([15]; 500 g ai/ha): 90; Corn plant response rating (corn (Zea mays); 500 g ai/ha): 0 |
| CCC(=O)Oc1c(C)nn(C)c(=O)c1-c1ccc(Cl)c2ccsc12 [Compound 36] | 0 | 90 | 0 | 0 | 0 | 90 | 0 | 10 | 30 | 30 | 0 | 100 | 0 | 0 | 80 | 0 | 80 | 0 | 0 | 0 | Plant response rating (0 to 100 scale), Barnyardgrass ([1]; 31 g ai/ha): 0; Plant response rating (0 to 100 scale), Pigweed ([2]; 31 g ai/ha): 0; Plant response rating (0 to 100 scale), Kochia (kochia (Kochia scoparia) [3]; 31 g ai/ha): 0; Plant response rating (0 to 100 scale), Foxtail, Giant ([4]; 31 g ai/ha): 0; Plant response rating (0 to 100 scale), Ragweed ([5]; 31 g ai/ha): 0; Plant response rating (0 to 100 scale), Ryegrass, It. ([6]; 31 g ai/ha): 20; Blackgrass plant response rating ([7]; 31 g ai/ha): 0; Barnyardgrass plant response rating ([8]; 31 g ai/ha): 0; Pigweed plant response rating ([9]; 31 g ai/ha): 0; Kochia plant response rating (kochia (Kochia scoparia) [10]; 31 g ai/ha): 20; Wheat plant response rating ([11]; 31 g ai/ha): 0; Galium plant response rating ([12]; 31 g ai/ha): 90; Foxtail, Giant plant response rating ([13]; 31 g ai/ha): 0; Ragweed plant response rating ([14]; 31 g ai/ha): 0; Ryegrass, It. plant response rating ([15]; 31 g ai/ha): 30; Corn plant response rating (corn (Zea mays); 31 g ai/ha): 0 |
| Cc1nn(C)c(=O)c(-c2ccc(Cl)c3sc(Br)cc23)c1O [Compound 37] | 0 | 0 | 0 | 0 | 50 | 0 | 0 | 0 | 0 | 10 | 0 | 40 | 0 | 0 | 0 | 0 | 0 | 0 | 0 | 0 | Plant response rating (0 to 100 scale), Barnyardgrass ([1]; 31 g ai/ha): 0; Plant response rating (0 to 100 scale), Pigweed ([2]; 31 g ai/ha): 0; Plant response rating (0 to 100 scale), Kochia (kochia (Kochia scoparia) [3]; 31 g ai/ha): 0; Plant response rating (0 to 100 scale), Foxtail, Giant ([4]; 31 g ai/ha): 0; Plant response rating (0 to 100 scale), Ragweed ([5]; 31 g ai/ha): 0; Plant response rating (0 to 100 scale), Ryegrass, It. ([6]; 31 g ai/ha): 0; Blackgrass plant response rating ([7]; 31 g ai/ha): 0; Barnyardgrass plant response rating ([8]; 31 g ai/ha): 0; Pigweed plant response rating ([9]; 31 g ai/ha): 0; Kochia plant response rating (kochia (Kochia scoparia) [10]; 31 g ai/ha): 0; Wheat plant response rating ([11]; 31 g ai/ha): 0; Galium plant response rating ([12]; 31 g ai/ha): 20; Foxtail, Giant plant response rating ([13]; 31 g ai/ha): 0; Ragweed plant response rating ([14]; 31 g ai/ha): 0; Ryegrass, It. plant response rating ([15]; 31 g ai/ha): 0; Corn plant response rating (corn (Zea mays); 31 g ai/ha): 0 |
